Molecular target: Cav2.3 (Homo sapiens, UniProt Q15878)
Assay: Human Cav2.3 channel calcium-influx assay
Format: cell-based
Conditions: HEK-293 T-Rex/Kir2.1/Cav2.3e-β4-α2δ1 cells, Fluo8 fluorescence, without pluronic acid; read-out: Cav2.3 (pIC50) (converted)
Protocol: HEK-293 T-Rex cells were transfected with pcDNA3.1-Kir2.1 to generate a stable cell line. After antibiotic selection, the obtained stable pools were analysed using FLIPR^TETRA (membrane potential assay), and a limiting dilution was performed and a HEK-293 T-Rex/Kir2.1 clone was selected. The clone was transfected with pcDNA3.1-Cav2.3e and pBud-Cav-β4-α2δ1 to generate a stable cell line where the Cav2.3e expression is inducible. After antibiotic selection, functional clone pool analysis and two successive limiting dilutions, the final clone underwent a qPCR analysis and a biophysical and pharmacological validation using patch-clamp.
A compound plate, containing 10 test compounds in eight-points dose response with n=4, was prepared. Test compounds dose response curves were prepared in automated fashion in 100% DMSO at CyBio Felix and starting from a stock solution in 100% DMSO; a defined volume was serially moved into destination wells pre-filled with the desired DMSO volume; stock solution concentration volumes were dependent on the final compounds concentrations to be tested and the final DMSO content used in the assay. For the assay test compounds dose response curves ranged from 30 μM and half log dilution with 0.3% final DMSO. In order to obtain the 8-points dose response curve all the concentrations were created by starting from a 10 mM DMSO stock solution and then moving 9.5 μL into a destination well pre-filled with 20.5 μL of 100% DMSO and repeating this step seven times. This initial step was done into 96 MTP plates, 10 compounds/plate. One 384 MTP was then reformatted to contain all the 10 compounds at 8 concentrations, quadruplicate data points. This so obtained 384 MTP compound plate served as source plate in a “mother to child” process with a CyBi®-Well dispenser in which 0.7 μL of compounds were moved into a destination plate pre-filled with 57.6 μL of Tyrode's buffer 0 mM K+, thus obtaining 4× concentrated compounds solution. In columns 1-2 and 23-24 the control wells were added. Both “source” compound plate and “destination” compound plate were barcoded and a relationship between the two plates was thus generated.
The day before the experiment, cells were detached by gentle wash with DPBS, followed by 5 min incubation at 37° C. with Trypsin solution. Detached cells were diluted with OptiMEM+Doxycycline at 0.2 μg/mL, counted and plated in Poly-D-Lysine coated black/clear bottom (15.000 c/well in 20 μl/well) by the use of a MATRIX WellMate dispenser. Plates were placed into a humidified incubator at 37° C. with 5% CO2 until the experimental day. 24 h after seeding 10 μL/well of 1.5× Fluo8 NW dye solution prepared in Tyrode's buffer 0 mM K^+ were added on top of the seeding medium. Cell plates were incubated for 40-60 min at RT in the dark. We then Injected off-line 10 μL/well of test compounds and controls 4× concentrated in Tyrode's Buffer 0 mM K+ with the CyBi®-Well instrument. Cell plates were incubated 3 minutes at RT. Finally, we injected 20 μL/well of 3× concentrated activator solution (K20-Na130-Ca2 buffer: 20 mM KCl, 130 mM NaCl, 2 mM CaCl2, 10 mM HEPES, 10 mM Glucose, final concentrations, prepared starting from “KO-Na150-Ca2” and “K150-Na0-Ca2” buffers) at FDSS7000EX instrument and read emitted fluorescence for 130 seconds.
Data analysis was performed with Genedata Screener® software and reported compounds activity as % effect in relation to the normalization standards. The Kinetic Response Value (KRV) is calculated as follows:
KRV=Maximal fluorescence recorded from second 5 to second 130 minus baseline fluorescence, computed as average from second 1 to second 2, of the kinetic trace. The KRV was normalized versus Neutral Controls and Inhibitor Controls in order to obtain the Activity[%] for each well. […] Therefore, the compound activity values were scaled (based on the two references) to a common range (two-point normalization). […]

Sequence of Cav2.3 (Q15878 1-747 limits assumed): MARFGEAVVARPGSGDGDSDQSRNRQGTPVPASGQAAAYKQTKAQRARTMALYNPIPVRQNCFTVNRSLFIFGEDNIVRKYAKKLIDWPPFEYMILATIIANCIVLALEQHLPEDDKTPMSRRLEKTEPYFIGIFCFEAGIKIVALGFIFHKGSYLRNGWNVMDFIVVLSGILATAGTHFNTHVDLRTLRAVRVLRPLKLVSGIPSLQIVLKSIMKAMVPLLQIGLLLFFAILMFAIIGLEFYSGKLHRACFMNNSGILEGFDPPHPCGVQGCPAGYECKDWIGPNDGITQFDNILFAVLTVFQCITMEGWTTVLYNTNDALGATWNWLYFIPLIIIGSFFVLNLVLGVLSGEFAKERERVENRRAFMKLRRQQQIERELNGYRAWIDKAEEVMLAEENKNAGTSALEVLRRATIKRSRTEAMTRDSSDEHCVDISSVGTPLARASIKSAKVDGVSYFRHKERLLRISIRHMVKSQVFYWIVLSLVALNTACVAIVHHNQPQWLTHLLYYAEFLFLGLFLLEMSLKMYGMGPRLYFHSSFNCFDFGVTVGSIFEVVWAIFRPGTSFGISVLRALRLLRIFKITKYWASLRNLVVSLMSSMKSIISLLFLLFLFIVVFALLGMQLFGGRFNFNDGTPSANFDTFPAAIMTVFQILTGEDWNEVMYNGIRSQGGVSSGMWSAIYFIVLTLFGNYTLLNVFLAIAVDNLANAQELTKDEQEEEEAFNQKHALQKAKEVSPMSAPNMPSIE
Sequence of Cav2.3 (Q15878 1126-2313 limits assumed): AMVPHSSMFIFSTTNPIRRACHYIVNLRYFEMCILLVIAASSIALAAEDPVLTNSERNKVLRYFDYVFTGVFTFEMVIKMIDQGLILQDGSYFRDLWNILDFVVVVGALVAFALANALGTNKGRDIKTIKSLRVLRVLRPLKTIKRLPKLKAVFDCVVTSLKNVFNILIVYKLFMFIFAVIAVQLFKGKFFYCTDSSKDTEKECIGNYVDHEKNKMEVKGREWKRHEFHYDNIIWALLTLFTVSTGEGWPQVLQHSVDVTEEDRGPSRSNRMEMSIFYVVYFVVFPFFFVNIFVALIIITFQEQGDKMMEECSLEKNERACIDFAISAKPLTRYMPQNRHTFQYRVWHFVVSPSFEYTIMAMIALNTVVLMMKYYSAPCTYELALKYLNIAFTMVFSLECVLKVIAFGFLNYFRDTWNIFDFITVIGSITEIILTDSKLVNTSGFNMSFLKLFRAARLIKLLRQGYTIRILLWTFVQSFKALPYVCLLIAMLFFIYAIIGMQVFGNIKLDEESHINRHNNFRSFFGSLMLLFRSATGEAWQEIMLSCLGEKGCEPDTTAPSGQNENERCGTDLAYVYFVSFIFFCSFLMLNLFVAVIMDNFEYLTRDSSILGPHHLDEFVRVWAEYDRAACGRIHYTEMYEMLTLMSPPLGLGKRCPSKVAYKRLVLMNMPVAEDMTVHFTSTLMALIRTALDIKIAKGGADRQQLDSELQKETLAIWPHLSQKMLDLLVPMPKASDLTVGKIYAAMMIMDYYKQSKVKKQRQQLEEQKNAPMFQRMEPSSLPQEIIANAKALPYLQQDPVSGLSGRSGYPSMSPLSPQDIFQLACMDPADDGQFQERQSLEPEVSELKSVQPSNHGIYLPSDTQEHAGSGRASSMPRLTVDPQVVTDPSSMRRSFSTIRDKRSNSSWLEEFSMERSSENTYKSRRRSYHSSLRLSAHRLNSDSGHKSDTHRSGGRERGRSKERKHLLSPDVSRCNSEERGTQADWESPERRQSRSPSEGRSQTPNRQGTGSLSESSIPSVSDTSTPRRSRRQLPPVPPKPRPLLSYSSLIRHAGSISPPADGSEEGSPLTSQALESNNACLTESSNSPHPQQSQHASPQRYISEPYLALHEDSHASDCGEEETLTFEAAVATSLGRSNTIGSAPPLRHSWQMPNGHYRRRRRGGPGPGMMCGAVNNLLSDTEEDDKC

For CC1CC2(CCC2)CN1S(=O)(=O)c1cc2ccccc2o1 (stereo not drawn) [Example 66, 6-(Benzofuran-2-ylsulfonyl)-7-methyl-6-azaspiro[3.4]octane], which IC50 is on record?
The IC50 was 9.12 µM.

Which IC50 does the source give for CC1CC2(CCC2)CN1S(=O)(=O)c1nc2ccccc2s1 (stereo not drawn) [Example 67, 2-((7-Methyl-6-azaspiro [3.4]octan-6-yl)sulfonyl)benzo[d]thiazole] here?
The IC50 was 9.77 µM.

For CC1CC2(CCC2)CN1S(=O)(=O)c1ccc2oncc2c1 (stereo not drawn) [Example 68, 5-((7-Methyl-6-azaspiro[3.4]octan-6-yl)sulfonyl)benzo[d]isoxazole], which IC50 is on record?
Its IC50 is 39.8 µM.

Which IC50 does the source give for CCC1CC2(CCC2)CN1S(=O)(=O)c1cccs1 (stereo not drawn) [Example 69, 7-Ethyl-6-(thiophen-2-ylsulfonyl)-6-azaspiro[3.4]octane] here?
The IC50 was 2.51 µM.

How did the IC50 turn out when CCC1CC2(CCC2)CN1S(=O)(=O)c1ccco1 (stereo not drawn) [Example 72, 7-Ethyl-6-(furan-2-ylsulfonyl)-6-azaspiro[3.4]octane] was run?
The IC50 was 4.37 µM.

Which IC50 does the source give for CC1CC2(CCCC2)CN1S(=O)(=O)c1cccs1 (stereo not drawn) [Example 73, 3-Methyl-2-(thiophen-2-ylsulfonyl)-2-azaspiro[4.4]nonane] here?
The IC50 was 1.7 µM.

CC1CC2(CCN1S(=O)(=O)c1cccs1)CC2 (stereo not drawn) [Example 74, 5-Methyl-6-(thiophen-2-ylsulfonyl)-6-azaspiro[2.5]octane] was tested. Which IC50 did it give?
Its IC50 is 6.03 µM.

With O=S(=O)(c1cccs1)N1CC2(CCCC2)CC1C1CCCCC1 (stereo not drawn) [Example 75, 3-Cyclohexyl-2-(thiophen-2-ylsulfonyl)-2-azaspiro[4.4]nonane] as the molecule, how does the IC50 read?
The IC50 was 37.2 µM.

How did the IC50 turn out when Cc1ccc(S(=O)(=O)N2CC3(CCC3)CC2C)s1 (stereo not drawn) [Example 76, 7-Methyl-6-((5-methylthiophen-2-yl)sulfonyl)-6-azaspiro[3.4]octane] was run?
Its IC50 is 7.94 µM.

With CC1CC2(CCC2)CN1S(=O)(=O)c1ccc2ccccc2n1 (stereo not drawn) [Example 79, 2-((7-Methyl-6-azaspiro[3.4]octan-6-yl)sulfonyl)quinoline] as the molecule, how does the IC50 read?
The IC50 was 6.31 µM.

For Cc1ccnc2cc(S(=O)(=O)N3CC4(CCC4)CC3C)ccc12 (stereo not drawn) [Example 80, 4-Methyl-7-((7-methyl-6-azaspiro[3.4]octan-6-yl)sulfonyl)quinoline], which IC50 is on record?
The IC50 was 2.82 µM.

For CC1CC2(CCC2)CN1S(=O)(=O)c1cncnc1 (stereo not drawn) [Example 83, 7-Methyl-6-(pyrimidin-5-ylsulfonyl)-6-azaspiro[3.4]octane], which IC50 is on record?
The IC50 was 8.91 µM.

CC(C)Oc1cc(S(=O)(=O)N2CC3(CCC3)CC2C)ccn1 (stereo not drawn) [Example 84, 6-((2-Isopropoxypyridin-4-yl)sulfonyl)-7-methyl-6-azaspiro[3.4]octane] was tested. Which IC50 did it give?
Its IC50 is 4.47 µM.

With CC1CC2(CCC2)CN1S(=O)(=O)c1cccc2c1CN(C(=O)C(F)(F)F)CC2 (stereo not drawn) [Example 85, 2,2,2-Trifluoro-1-(8-((7-methyl-6-azaspiro[3.4]octan-6-yl)sulfonyl)-3,4-dihydroisoquinolin-2(1H)-yl)ethan-1-one] as the molecule, how does the IC50 read?
Its IC50 is 19.1 µM.

For COc1cc(S(=O)(=O)N2CC3(CCC3)CC2C)ccn1 (stereo not drawn) [Example 86, 6-((2-Methoxypyridin-4-yl)sulfonyl)-7-methyl-6-azaspiro[3.4]octane], which IC50 is on record?
The IC50 was 1.35 µM.

How did the IC50 turn out when CCC1CC2(CCC2)CN1S(=O)(=O)c1ccnc(OC)c1 (stereo not drawn) [Example 87, 7-Ethyl-6-((2-methoxypyridin-4-yl)sulfonyl)-6-azaspiro[3.4]octane] was run?
The IC50 was 2 µM.

CCOc1cc(S(=O)(=O)N2CC3(CCC3)CC2C)ccn1 (stereo not drawn) [Example 88, 6-((2-Ethoxypyridin-4-yl)sulfonyl)-7-methyl-6-azaspiro[3.4]octane] was tested. Which IC50 did it give?
Its IC50 is 2.51 µM.

COCc1ncsc1S(=O)(=O)N1CC2(CCC2)CC1C (stereo not drawn) [Example 89, 4-(Methoxymethyl)-5-((7-methyl-6-azaspiro[3.4]octan-6-yl)sulfonyl)thiazole] was tested. Which IC50 did it give?
The IC50 was 10 µM.

With CC1CC2(CCC2)CN1S(=O)(=O)c1scnc1CO (stereo not drawn) [Example 90, (5-((7-Methyl-6-azaspiro[3.4]octan-6-yl)sulfonyl)thiazol-4-yl)methanol] as the molecule, how does the IC50 read?
Its IC50 is 11.2 µM.

With CCC1CC2(CCC2)CN1S(=O)(=O)c1ccc2ccoc2c1 (stereo not drawn) [Example 91, 6-(Benzofuran-6-ylsulfonyl)-7-ethyl-6-azaspiro[3.4]octane] as the molecule, how does the IC50 read?
Its IC50 is 2.4 µM.

With CCC1CC2(CCC2)CN1S(=O)(=O)c1ccnc(C)c1 (stereo not drawn) [Example 92, 7-Ethyl-6-((2-methylpyridin-4-yl)sulfonyl)-6-azaspiro[3.4]octane] as the molecule, how does the IC50 read?
The IC50 was 2.45 µM.

Which IC50 does the source give for Cc1noc(C)c1C(=O)N1CCc2ccc(S(=O)(=O)N3CC4(CCC4)CC3C)cc2C1 (stereo not drawn) [Example 93, (3,5-Dimethylisoxazol-4-yl)(7-((7-methyl-6-azaspiro[3.4]octan-6-yl)sulfonyl)-3,4-dihydroisoquinolin-2(1H)-yl)methanone] here?
Its IC50 is 2.04 µM.

With CC(=O)N1CCc2ccc(S(=O)(=O)N3CC4(CCC4)CC3C)cc2C1 (stereo not drawn) [Example 94, 1-(7-((7-Methyl-6-azaspiro[3.4]octan-6-yl)sulfonyl)-3,4-dihydroisoquinolin-2(1H)-yl)ethan-1-one] as the molecule, how does the IC50 read?
The IC50 was 2 µM.

How did the IC50 turn out when Cc1cnc(S(=O)(=O)N2CC3(CCC3)CC2C)s1 (stereo not drawn) [Example 95, 5-Methyl-2-((7-methyl-6-azaspiro[3.4]octan-6-yl)sulfonyl)thiazole] was run?
The IC50 was 7.76 µM.

How did the IC50 turn out when CCOc1ccc2nc(S(=O)(=O)N3CC4(CCC4)CC3C)sc2c1 (stereo not drawn) [Example 96, 6-Ethoxy-2-((7-methyl-6-azaspiro[3.4]octan-6-yl)sulfonyl)benzo[d]thiazole] was run?
Its IC50 is 9.33 µM.

How did the IC50 turn out when CCC1CC2(CCCC2)CN1S(=O)(=O)c1cccs1 (stereo not drawn) [Example 97, 3-Ethyl-2-(thiophen-2-ylsulfonyl)-2-azaspiro[4.4]nonane] was run?
The IC50 was 2.51 µM.

With CCC1CC2(CCCC2)CN1S(=O)(=O)c1ccc2c(c1)CN(C(=O)C(F)(F)F)CC2 (stereo not drawn) [Example 101, 1-(7-((3-Ethyl-2-azaspiro[4.4]nonan-2-yl)sulfonyl)-3,4-dihydroisoquinolin-2(1H)-yl)-2,2,2-trifluoroethan-1-one] as the molecule, how does the IC50 read?
Its IC50 is 2.45 µM.

CC1CC2(CCC2)CN1S(=O)(=O)c1cccs1 (stereo not drawn) [Example 102, 7-Methyl-6-(thiophen-2-ylsulfonyl)-6-azaspiro[3.4]octane] was tested. Which IC50 did it give?
Its IC50 is 2.69 µM.

With Cc1nc(C)c(S(=O)(=O)N2CC3(CCC3)CC2C)s1 (stereo not drawn) [Example 105, 2,4-Dimethyl-5-((7-methyl-6-azaspiro[3.4]octan-6-yl)sulfonyl)thiazole] as the molecule, how does the IC50 read?
Its IC50 is 4.57 µM.

How did the IC50 turn out when CC1CC2(CCC2)CN1S(=O)(=O)c1ccc(Cl)s1 (stereo not drawn) [Example 108, 6-((5-Chlorothiophen-2-yl)sulfonyl)-7-methyl-6-azaspiro[3.4]octane] was run?
The IC50 was 11.5 µM.

For CC1CC2(CCC2)CN1S(=O)(=O)c1cncs1 (stereo not drawn) [Example 109, 5-((7-Methyl-6-azaspiro[3.4]octan-6-yl)sulfonyl)thiazole], which IC50 is on record?
Its IC50 is 3.98 µM.

With CC1CC2(CCC2)CN1S(=O)(=O)c1ccc(F)s1 (stereo not drawn) [Example 110, 6-((5-fluorothiophen-2-yl)sulfonyl)-7-methyl-6-azaspiro[3.4]octane] as the molecule, how does the IC50 read?
Its IC50 is 5.01 µM.

How did the IC50 turn out when CC1CC2(CCC2)CN1S(=O)(=O)c1cncc(C#N)c1 (stereo not drawn) [Example 111, 5-((7-methyl-6-azaspiro[3.4]octan-6-yl)sulfonyl)nicotinonitrile] was run?
Its IC50 is 1.95 µM.

— patent US20250101003A1, “SPIROCYCLIC CAV2.3 ANTAGONISTS” (LARIO THERAPEUTICS LIMITED, priority 2021, published 2025)
